This is an account of results in patent US5053392A, “Novel arginine, glycine, aspartic acid derivatives as platelet-aggregation inhibitors” (Rhone-Poulenc Rorer Pharmaceuticals Inc., priority 1989, dated 1991).

pIC50: −log10 of the molar value. Non-standard residues stand in square brackets, D forms with d. Residues, ends and D or L forms follow the SMILES beside them. ξ: configuration not given here. Aze = O=C(O)[C@@H]1CCN1; ξPip = O=C(O)C1CCCCN1; Ava = NCCCCC(=O)O Bounds are passed on as bounds.

In one assay the test system is Human Platelets. Put plainly: Inhibition of fibrinogen-mediated platelet aggregation. The conditions noted are these: for pIC50: thrombin-activated human platelets, rate of aggregation. The format is cell-based. The procedure:
II. Inhibition of Fibrinogen - Mediated Platelet Aggregation, which is essentially based on the method described in Blood, Vol. 66, No. 4, October 1985, pp. 846-952, and is as follows.
Human Platelets were isolated from freshly drawn whole blood and were suspended in 0.14 mol/L NaCl, 2.7 mmol/L […], 12 mmol/L NaHCO3, 0.42 mmol/L Na2 HPO4, 0.55 mmol/L glucose, and 5 mmol/L Hepes, pH 7.35 at 2×10^8 platelets/ml. The suspension was incubated at 37° C. An aliquot of 0.4 ml of platelet suspension was activated by human thrombin at a final concentration of 2 μg/ml of thrombin for one minute. After one minute the reaction was stopped by a thrombin inhibitor. Serial dilution of the compound being tested was then added to the activated platelet, the reaction was allowed to proceed for one minute, followed by the addition of human fibrinogen at a final concentration of […] of fibrinogen. Platelet aggregation was then recorded by an aggregometer. Rate of aggregation was used to calculate IC50.

Assay [1] relates to thrombin-stimulated platelets. In words: Inhibition of radiolabeled (125I) fibrinogen binding assay. Particulars: for Inhibition of 125I-Fibrinogen Binding to Platelet, inhibition at 50 μg/ml: at 50 μg/ml (footnote *); for pIC50: thrombin-stimulated platelets, read-out: Inhibition of 125I-Fibrinogen Binding to Platelet IC50. As to the method: I. Inhibition of Radiolabeled (125I) Fibrinogen Binding Assay, which is essentially based on the method described in Proc Natl. Acad. Sci. U.S.A. Vol. 83, pp. 5708-5712, August 1986, and is as follows.
Platelets are washed free of plasma constitutes by the albumin density-gradient technique. In each experimental mixture platelets in modified Tyrode's buffer are stimulated with human α-thrombin at 22°-25° C. for 10 minutes (3.125×10" platelets per liter and thrombin at […]). Hirudin is then added at a 25-fold excess for 5 minutes before addition of the radiolabeled ligand and any competing ligand. After these additions, the final platelet count in the mixture is […], bound and free ligand are separated by centrifuging 50 μl of the mixture through 300 μl of 20% sucrose at 12,000×g for 4 minutes. The platelet pellet is then separated from the rest of the mixture to determine platelet-bound radioactivity. Nonspecific binding is measured in mixtures containing an excess of unlabeled ligand. When binding curves are analyzed by Scatchard analysis, nonspecific binding is derived as a fitted parameter from the binding isotherm by means of a computerized program. To determine the concentration of each inhibitory compound necessary to inhibit 50% of fibrinogen binding to thrombin-stimulated platelets (IC50), each compound is tested at 0.176 μgmol/liter (60 μg/ml). The IC50 is derived by plotting residual fibrinogen binding against the logarithm of the sample compound's concentration.

Broadly, the pIC50 is the IC50 on a negative log10 scale, so that one unit is a factor of ten. Take `CC(C)[C@H](NC(=O)[C@H](CC(=O)O)NC(=O)[C@@H]1CCCN1C(=O)[C@@H](N)CCCNC(=N)N)C(=O)O` [L-arginyl-L-prolyl-L-aspartyl-L-valine, L-Arginyl-L-prolyl-L-aspartyl-L-valine] (H-RPDV-OH): in the assay with Human Platelets, the “Inhibition of Fibrinogen Mediated Platelet Aggregation % inhibition at 100 μM” value is reported as 25% and the pIC50 is less than 4.00. Further, in assay [1], the “Inhibition of 125I-Fibrinogen Binding to Platelet, inhibition at 50 μg/ml” value is “* (Inhibited less than 50% at 50 μg/ml)”.

On to `CC(C)[C@H](NC(=O)[C@H](CC(=O)O)NC(=O)[C@@H]1CCN1C(=O)CCCCN)C(=O)O` [N-(5-aminopentanoyl)-azetidin-(2S)-carboxyl-Asp-Val] (H-[Ava][Aze]DV-OH), for which, in the assay on Human Platelets, the “Inhibition of Fibrinogen Mediated Platelet Aggregation % inhibition at 100 μM” value was 74% and the pIC50 was 4.23. The pIC50 in assay [1] is less than 3.70.

Take `CC(C)[C@H](NC(=O)[C@H](CC(=O)O)NC(=O)[C@@H]1CCN1C(=O)[C@@H](N)CCCNC(=N)N)C(=O)O` [N-(L-arqinyl)-azetidine-(2S)-carboxyl-Asp-Val] (H-R[Aze]DV-OH): the “Inhibition of Fibrinogen Mediated Platelet Aggregation % inhibition at 100 μM” value in the assay on Human Platelets is recorded as 91%. The pIC50 (in the assay on Human Platelets; in assay [1]) was 4.89 each time.

In the case of `CC(C)[C@H](NC(=O)[C@H](CC(=O)O)NC(=O)C1CCCCN1C(=O)[C@@H](N)CCCNC(=N)N)C(=O)O` (stereo partly drawn) [N-[1-(L-arginyl)piperidin-2-yl-carbonyl]-L-aspartyl-L-valine] (H-R[ξPip]DV-OH), in the assay on Human Platelets, the “Inhibition of Fibrinogen Mediated Platelet Aggregation % inhibition at 100 μM” value is listed as 73% and the pIC50 is 4.54. Moreover, the “Inhibition of 125I-Fibrinogen Binding to Platelet, inhibition at 50 μg/ml” value in assay [1] is on record as “* (Inhibited less than 50% at 50 μg/ml)”.
